The target in one assay is T1, 5-HT1DA-Clone (Homo sapiens, UniProt P28221).
T1 construct: expressed in transfected cells
Put plainly: receptor binding assay, 5-HT1DA clone (5HT ligand). As to the method: (§1) Compounds of Example 4 (Formula I where R1 and R2 are propyl, Y is hydrogen and X is —OCH3) were evaluated in an receptor binding assay (5HT Ligand) for calculation of IC50 values and Ki (nM) values. Receptor binding assays are well known tests for evaluating compounds for activity as described in “Cloning and Pharmacological Characterization of a Novel Human […] Receptor Sub-Type”, Mol. Pharm., 42 439-44 (1992), herein incorporated by reference.

The target in another assay is T2, 5-HT1DB-Clone (Homo sapiens, UniProt P28222).
T2 construct: expressed in transfected cells
As to the kind of experiment: receptor binding assay, 5-HT1DB clone (5HT ligand). As to the method: as §1

Another assay has as its target T3, 5-HT1A-Clone (Homo sapiens, UniProt P08908).
T3 construct: expressed in transfected cells
T3 sequence (P08908 1-422): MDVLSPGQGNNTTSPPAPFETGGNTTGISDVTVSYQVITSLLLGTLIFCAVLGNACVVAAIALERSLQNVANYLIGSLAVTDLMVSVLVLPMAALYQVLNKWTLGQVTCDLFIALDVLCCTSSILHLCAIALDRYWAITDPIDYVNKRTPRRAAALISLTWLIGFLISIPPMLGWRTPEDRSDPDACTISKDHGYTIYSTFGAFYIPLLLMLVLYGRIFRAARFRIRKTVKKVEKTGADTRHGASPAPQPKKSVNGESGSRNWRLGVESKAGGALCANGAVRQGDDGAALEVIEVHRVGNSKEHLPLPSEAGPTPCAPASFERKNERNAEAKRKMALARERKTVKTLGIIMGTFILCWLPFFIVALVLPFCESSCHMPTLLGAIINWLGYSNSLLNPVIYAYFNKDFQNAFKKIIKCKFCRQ
As to the kind of experiment: receptor binding assay, 5-HT1A clone (DPAT ligand). As to the method: as §1

The test system of assay [1] is aggressive behavior of isolated male CF-1 mice. As to the kind of experiment: isolation-induced aggression assay (latency to attack an intruder mouse). Type of assay: in vivo. The conditions noted are these: isolated male CF-1 mice dosed p.o., intruder introduced thirty minutes later, n=6. As for the experimental part:
Compounds of the subject invention were evaluated in an isolation-induced aggression assay to measure their ability to control or arrest aggressive behavior as measured against a saline “Control”. Male CF-1 mice (Charles River Labs) were housed singly in wire cage drawers for several weeks of isolation and aggression training. After this, the isolated mouse (weighing 30-50 g) initiated an “attack” whenever an intruder mouse was placed into his cage. Intruders were male CF-1 Charles River mice, about the same size as isolated mice and housed in groups of 12 per cage. For drug testing, the isolated mice were dosed orally (p.o.) with drug or 0.25% methylcellulose vehicle. Thirty minutes later, an intruder mouse was introduced and the latency to attack was recorded. Treatment groups (n=6), including a positive control, were tested by an observer blinded to the treatments, and there was an additional non-blinded vehicle group.

T2 sequence (P28222 whole entry): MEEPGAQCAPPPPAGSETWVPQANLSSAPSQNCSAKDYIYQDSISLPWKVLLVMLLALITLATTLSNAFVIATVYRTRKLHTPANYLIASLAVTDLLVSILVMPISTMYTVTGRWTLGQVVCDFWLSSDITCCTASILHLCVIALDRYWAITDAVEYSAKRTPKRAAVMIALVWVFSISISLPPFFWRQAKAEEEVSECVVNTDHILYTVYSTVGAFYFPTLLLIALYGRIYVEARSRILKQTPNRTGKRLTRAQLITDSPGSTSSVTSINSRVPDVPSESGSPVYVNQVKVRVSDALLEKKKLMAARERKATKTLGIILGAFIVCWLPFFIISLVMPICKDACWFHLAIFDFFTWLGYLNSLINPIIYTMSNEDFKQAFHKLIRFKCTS
T1 sequence (P28221 whole entry): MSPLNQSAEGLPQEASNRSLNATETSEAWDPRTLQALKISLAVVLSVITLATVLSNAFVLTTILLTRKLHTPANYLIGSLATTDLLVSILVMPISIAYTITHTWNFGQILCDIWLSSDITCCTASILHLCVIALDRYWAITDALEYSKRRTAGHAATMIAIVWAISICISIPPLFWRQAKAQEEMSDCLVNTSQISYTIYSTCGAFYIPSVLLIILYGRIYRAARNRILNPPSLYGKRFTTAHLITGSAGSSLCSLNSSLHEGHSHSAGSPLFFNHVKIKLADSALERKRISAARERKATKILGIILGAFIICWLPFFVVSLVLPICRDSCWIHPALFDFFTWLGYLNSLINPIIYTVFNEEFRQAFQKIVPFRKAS

On to `CCCN(CCC)C1Cc2cccc3c2n(c(=O)n3OC)C1` (racemic) [Ex. 4 Racemate], for which the Ki on 5-HT1DA-Clone worked out at 0.0152 µM; on 5-HT1DB-Clone, 0.00717 µM. Moreover, the “receptor selectivity (in words)” value on 5-HT1DB-Clone (5-HT1DB versus 5-HT1DA, conclusion from the Ki table) is recorded as “selective for the 5HT1DB receptor”.

With `CCCN(CCC)[C@@H]1Cc2cccc3c2n(c(=O)n3OC)C1` [Ex. 4 R-Enantiomer, (R)-5-Dipropylamino-1-methoxy-5,6-dihydro-4H-imidazo[4,5,1-ij]quinolin-2(1H)-one], the Ki on 5-HT1DA-Clone was 0.038 µM; at 5-HT1DB-Clone it was 0.058 µM; at 5-HT1A-Clone it was 0.097 µM. Moreover, the “enantiomer that carries the activity (in words)” value on 5-HT1A-Clone (comparison of R- and S-enantiomer, conclusion from the Ki table) is given as “the activity resides in the R-enantiomer”.

For the compound `CCCN(CCC)[C@H]1Cc2cccc3c2n(c(=O)n3OC)C1` [Ex. 4 S-Enantiomer], the Ki on 5-HT1A-Clone amounted to 0.904 µM.

Consider `CN[C@@H]1Cc2cccc3c2n(c(=O)n3OC)C1` [Example 1, (R)-5-Methylamino-1-methoxy-5,6-dihydro-4H-imidazo[4,5,1-ij]quinolin-2(1H)-one], for which the “latency to attack” value in assay [1] was found to be 600 s.

As usually defined, the Ki is the equilibrium dissociation constant of an inhibitor or competing ligand from its target. Low values mean a stronger hold on the target, high ones a looser hold on the target.

Source of the values: patent USRE40278E1, “Heterocyclic amines having central nervous system activity” (priority 1993, dated 2008).
